pEC50: −log10 of the molar value.
Assays:
[1] = molecular target: T1, G-protein coupled bile acid receptor 1 (Homo sapiens, UniProt Q8TDU6); experiment: Agonist activity at TGR5 (unknown origin) by TR-FRET assay; type: functional
T1 sequence (Q8TDU6 whole entry): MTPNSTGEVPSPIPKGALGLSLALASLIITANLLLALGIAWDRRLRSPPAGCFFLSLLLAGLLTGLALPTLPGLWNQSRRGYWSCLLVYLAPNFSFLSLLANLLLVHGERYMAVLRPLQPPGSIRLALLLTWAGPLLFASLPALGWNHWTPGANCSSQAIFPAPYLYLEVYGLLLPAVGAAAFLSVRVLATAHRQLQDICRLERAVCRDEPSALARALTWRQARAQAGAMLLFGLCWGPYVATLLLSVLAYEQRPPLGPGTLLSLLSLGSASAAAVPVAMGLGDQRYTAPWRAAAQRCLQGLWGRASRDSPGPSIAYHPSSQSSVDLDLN

[2] = molecular target: T1, G-protein coupled bile acid receptor 1; experiment: Agonist activity at human TGR5 expressed in HEK293 cells; type: functional, cell-based
[3] = molecular target: T1, G-protein coupled bile acid receptor 1; experiment: Agonist activity at human TGR5; type: functional
[4] = molecular target: T1, G-protein coupled bile acid receptor 1; experiment: Agonist activity at TGR5 (unknown origin) expressed in HEK293T cells assessed as cAMP level by TR-FRET analysis; type: functional, cell-based

Compound	pEC50 [1]	other results
O=C(c1cccnc1Oc1cc(Cl)ccc1Cl)N1CCN(C2CC2)c2ccccc21	8.00	
Fc1cccc(F)c1-c1ccncc1CN1C(c2ccco2)=NOC1c1cc(C(F)(F)F)cc(C(F)(F)F)c1Cl (configuration not stated)		pEC50 [2]: 7.82
O=C(c1cccnc1Oc1cc(Cl)ccc1Cl)N1CCCc2cc(F)ccc21	7.70	
COc1ccc(S(=O)(=O)N2CCN(S(=O)(=O)c3ccc(OC)c(OC)c3)CC2)cc1OC		pEC50 [3]: 5.89
O=C(c1cccnc1Oc1cc(Cl)ccc1Cl)N1CCCc2ccc(F)cc21	7.30	
COc1ccc(C(C)(C)c2cn(-c3ccc(F)cc3)c(SCc3c(F)cccc3Cl)n2)cc1OC		pEC50 [4]: 7.60
O=C(c1cccnc1Oc1cc(Cl)ccc1Cl)N1CCCc2cc(F)c(F)cc21	7.30	
